Where “and” joins values, the source holds several entries; their conditions need not be identical. Identical values can stand only once. Toxic doses and inconclusive results are not listed. How the source made its calls: active means survival T/C of 150% or more; inactive means T/C below 125% in these data.
System: P388 leukemia ip, CD2F1 mice, survival T/C
Test: NCI In Vivo Anticancer Drug Screen. Data for tumor model P388 Leukemia (intraperitoneal) in CD2F1 (CDF1) mice
Details: endpoint: median survival time, higher = longer survival
Procedure, shortened: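 Mice carrying the transplanted tumor received test compound or vehicle. Survival was recorded in each group, and the value is the treated-group measurement divided by that of the vehicle-treated control group.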

[1] = dose: 50.0 mg/kg/injection, schedule: Q01DX009 (ip), vehicle: Klucel (hydroxypropylcellulose) (HPC)
[2] = dose: 100.0 mg/kg/injection, schedule: Q01DX009 (ip), vehicle: Klucel (hydroxypropylcellulose) (HPC)
[3] = dose: 200.0 mg/kg/injection, schedule: Q01DX009 (ip), vehicle: Klucel (hydroxypropylcellulose) (HPC)
[4] = dose: 50.0 mg/kg/injection, schedule: Q01DX005 (ip), vehicle: saline
[5] = dose: 100.0 mg/kg/injection, schedule: Q01DX005 (ip), vehicle: saline
[6] = dose: 50.0 mg/kg/injection, schedule: Q01DX005 (ip), vehicle: saline with Tween-80
[7] = dose: 100.0 mg/kg/injection, schedule: Q01DX005 (ip), vehicle: saline with Tween-80
[8] = dose: 200.0 mg/kg/injection, schedule: Q01DX005 (ip), vehicle: saline with Tween-80
[9] = dose: 12.5 mg/kg/injection, schedule: Q01DX009 (ip), vehicle: saline with Tween-80
[10] = dose: 25.0 mg/kg/injection, schedule: Q01DX009 (ip), vehicle: saline with Tween-80
[11] = dose: 50.0 mg/kg/injection, schedule: Q01DX009 (ip), vehicle: saline with Tween-80
[12] = dose: 100.0 mg/kg/injection, schedule: Q01DX009 (ip), vehicle: saline with Tween-80
[13] = dose: 50.0 mg/kg/injection, schedule: Q01DX009 (ip), vehicle: saline
[14] = dose: 200.0 mg/kg/injection, schedule: Q01DX009 (ip), vehicle: saline with Tween-80
[15] = dose: 100.0 mg/kg/injection, schedule: Q01DX009 (ip), vehicle: saline
[16] = dose: 200.0 mg/kg/injection, schedule: Q01DX009 (ip), vehicle: saline

Measured: T/C

CCOC(Cn1nc(SC)nc1N)OCC
inactive: dose: 100.0 mg/kg/injection, schedule: Q04DX002 (ip), vehicle: water 108 % of control | dose: 200.0 mg/kg/injection, schedule: Q04DX002 (ip), vehicle: water 104 % of control | dose: 400.0 mg/kg/injection, schedule: Q04DX002 (ip), vehicle: water 109 % of control

C1OC1C1CO1 (stereo not given)
inactive: dose: 10.0 mg/kg/injection, schedule: Q04DX003 (ip), vehicle: saline 113 % of control | dose: 13.2 mg/kg/injection, schedule: Q01DX009 (ip), vehicle: saline 109 % of control | dose: 20.0 mg/kg/injection, schedule: Q04DX003 (ip), vehicle: saline 113 % of control | dose: 30.0 mg/kg/injection, schedule: Q01DX009 (ip), vehicle: saline 118 % of control | dose: 40.0 mg/kg/injection, schedule: Q01DX009 (ip), vehicle: saline 95 % of control | dose: 40.0 mg/kg/injection, schedule: Q04DX003 (ip), vehicle: saline 109 % of control

CSc1nc(N)c(C(=O)NC2CCCCC2)s1
inactive: [1] 100 % of control | [2] 100 % of control | [3] 99 % of control

COc1ccc2nc3cc(Cl)ccc3c(NCCCNCCCCNCCCNc3c4ccc(Cl)cc4nc4ccc(OC)cc34)c2c1
inactive: dose: 0.62 mg/kg/injection, schedule: Q01DX009 (ip), vehicle: other 106 % of control | dose: 1.25 mg/kg/injection, schedule: Q01DX009 (ip), vehicle: other 110 % of control | dose: 2.5 mg/kg/injection, schedule: Q01DX009 (ip), vehicle: other 119 % of control

[N-]=[N+]=Nc1ccc(SN2C(=O)c3ccccc3C2=O)cc1
inactive: dose: 60.0 mg/kg/injection, schedule: Q01DX005 (ip), vehicle: saline with Tween-80 112 % of control | dose: 120.0 mg/kg/injection, schedule: Q01DX005 (ip), vehicle: saline with Tween-80 113 % of control | dose: 240.0 mg/kg/injection, schedule: Q01DX005 (ip), vehicle: saline with Tween-80 113 % of control

CN(C)CCNCCN
inactive: [4] 96 % of control | [5] 99 % of control

CCN(CCN1C(=O)C2CCCCC2C1=O)c1ccc(N=O)c(C)c1 (stereo not given)
inactive: dose: 100.0 mg/kg/injection, schedule: Q04DX003 (ip), vehicle: saline with Tween-80 106 % of control | dose: 200.0 mg/kg/injection, schedule: Q04DX003 (ip), vehicle: saline with Tween-80 109 % of control | dose: 400.0 mg/kg/injection, schedule: Q04DX003 (ip), vehicle: saline with Tween-80 112 % of control

Cc1c2ccncc2c(C)c2c1sc1ccccc12
inactive: dose: 12.5 mg/kg/injection, schedule: Q04DX003 (ip), vehicle: alkali diluted with water 121 % of control | dose: 400.0 mg/kg/injection, schedule: Q04DX003 (ip), vehicle: distilled water + Tween-80 117 % of control
active: dose: 200.0 mg/kg/injection, schedule: Q04DX003 (ip), vehicle: alkali diluted with water 162 % of control | dose: 200.0 mg/kg/injection, schedule: Q04DX003 (ip), vehicle: distilled water + Tween-80 155 % of control

C=C1CC23CCC4C(C)(C(=O)O)CCCC4(C)C2CCC1C3 (stereo not given)
inactive: [6] 116 % of control | [7] 116 % of control | [8] 117 % of control | dose: 400.0 mg/kg/injection, schedule: Q01DX005 (ip), vehicle: saline with Tween-80 107 % of control

COc1cc2c(c(=O)c3ccccc3n2C)c2c1c(=O)c1ccccc1n2C
inactive: dose: 60.0 mg/kg/injection, schedule: Q01DX005 (ip), vehicle: Klucel (hydroxypropylcellulose) (HPC) 96 % of control | dose: 120.0 mg/kg/injection, schedule: Q01DX005 (ip), vehicle: Klucel (hydroxypropylcellulose) (HPC) 98 % of control

BrCC[N+]12CC[N+](CCBr)(CC1)C2 (tested in a mixture with another compound)
inactive: dose: 5.0 mg/kg/injection, schedule: Q04DX003 (ip), vehicle: water 107 % of control | dose: 10.0 mg/kg/injection, schedule: Q04DX003 (ip), vehicle: water 114 % of control | dose: 20.0 mg/kg/injection, schedule: Q04DX003 (ip), vehicle: distilled water + Tween-80 122 % of control | dose: 20.0 mg/kg/injection, schedule: Q04DX003 (ip), vehicle: water 100 % of control | dose: 37.5 mg/kg/injection, schedule: Q04DX003 (ip), vehicle: water 112 % of control | dose: 40.0 mg/kg/injection, schedule: Q04DX003 (ip), vehicle: distilled water + Tween-80 107 % of control | dose: 40.0 mg/kg/injection, schedule: Q04DX003 (ip), vehicle: water 104 % of control | dose: 80.0 mg/kg/injection, schedule: Q04DX003 (ip), vehicle: distilled water + Tween-80 118 % of control | dose: 80.0 mg/kg/injection, schedule: Q04DX003 (ip), vehicle: water 110 % of control | dose: 160.0 mg/kg/injection, schedule: Q04DX003 (ip), vehicle: distilled water + Tween-80 116 % of control | dose: 160.0 mg/kg/injection, schedule: Q04DX003 (ip), vehicle: water 112 % of control

O=C(O)Cc1ccc2c(c1)Cc1cccnc1O2
inactive: [1] 108 % of control | [2] 96 % of control | [3] 119 % of control

CCN(CC)CCNC
inactive: [4] 99 % of control | [5] 95 % of control | dose: 200.0 mg/kg/injection, schedule: Q01DX005 (ip), vehicle: saline 98 % of control

CN1C2CCC1CC(OC(=O)C(CO)c1ccccc1)C2 (stereo not given)
inactive: [9] 105 % of control and 95 % of control | [10] 100 % of control and 111 % of control | [11] 103 % of control and 92 % of control | [12] 100 % of control and 95 % of control | dose: 150.0 mg/kg/injection, schedule: Q01DX009 (ip), vehicle: saline with Tween-80 112 % of control and 95 % of control

COC1C(/C=C/C(C)=O)OC2OC(C)(C)OC21 (stereo not given)
inactive: dose: 25.0 mg/kg/injection, schedule: Q01DX009 (ip), vehicle: saline 106 % of control | [13] 107 % of control and 112 % of control

CCOC(=O)/C=C/c1c(Cl)n(C)c(=O)n(C)c1=O
inactive: dose: 7.5 mg/kg/injection, schedule: Q01DX005 (ip), vehicle: Klucel (hydroxypropylcellulose) (HPC) 102 % of control | dose: 15.0 mg/kg/injection, schedule: Q01DX005 (ip), vehicle: Klucel (hydroxypropylcellulose) (HPC) 100 % of control | dose: 30.0 mg/kg/injection, schedule: Q01DX005 (ip), vehicle: Klucel (hydroxypropylcellulose) (HPC) 100 % of control

CC1(CCl)Nc2ccccc2C(=O)N1c1ccc(Cl)cc1 (stereo not given)
inactive: [11] 94 % of control | [12] 95 % of control | [14] 89 % of control

CS(=O)(=O)c1cccc(C(=O)O)c1
inactive: [1] 108 % of control | [2] 108 % of control | [3] 99 % of control

Cc1ccnc(Nc2nnc(Nc3cc(C)ccn3)c3ccccc23)c1
inactive: [6] 100 % of control | [7] 97 % of control | [8] 97 % of control

O=C(NO)C(O)C(O)C(O)CO (stereo not given)
inactive: [13] 101 % of control | [15] 104 % of control | [16] 104 % of control

O=[N+]([O-])c1ccc(CS(=O)(=O)c2ccccc2)o1
inactive: dose: 50.0 mg/kg/injection, schedule: Q01DX009 (ip), vehicle: suspension in saline 103 % of control | dose: 100.0 mg/kg/injection, schedule: Q01DX009 (ip), vehicle: suspension in saline 100 % of control | dose: 200.0 mg/kg/injection, schedule: Q01DX009 (ip), vehicle: suspension in saline 105 % of control

O=C(O)c1cc(O)cc(C(=O)O)c1
inactive: [10] 99 % of control | [11] 99 % of control | [12] 94 % of control

CC1=NNB(O)c2ccsc21
inactive: [11] 98 % of control | [12] 99 % of control | [14] 108 % of control

CCOC(=O)NC(=S)Nc1ccsc1
inactive: [11] 99 % of control | [12] 104 % of control | [14] 102 % of control

Cc1c(N)ccc(O)c1C
inactive: [9] 120 % of control | [10] 105 % of control | [11] 100 % of control

CN1CCCC1c1ccc[n+](C)c1 (stereo not given)
inactive: [13] 110 % of control and 108 % of control | [15] 110 % of control and 105 % of control | [16] 115 % of control and 113 % of control

CCCCCCCCCCCCCCCCS(=O)(=O)N/N=C(/C)N(C)c1ccc(OC)cc1
inactive: [1] 107 % of control | [2] 107 % of control | [3] 111 % of control

O=C(Nc1ccccc1)/C(Cl)=C(/Cl)C(=O)C(Cl)(Cl)Cl
inactive: dose: 12.5 mg/kg/injection, schedule: Q01DX009 (ip), vehicle: distilled water + Tween-80 103 % of control | dose: 25.0 mg/kg/injection, schedule: Q01DX009 (ip), vehicle: distilled water + Tween-80 103 % of control

Source: PubChem BioAssay AID330 (DTP/NCI, 2004)
